Source: US20260242340A1, “COMPOUNDS AND METHODS FOR TREATING PROTEIN AGGREGATION DISEASES” (ACELOT, INC., priority 2023, published 2026)

What was measured:
[1] = target: T1, TDP-43 cytosolic aggregates (TDP-43-tGFP-U2OS cell line) (Homo sapiens, UniProt Q13148); assay: TDP-43 cytoplasmic aggregation assay; type: cell-based; settings: 100 μM compound; TDP-43-tGFP-U2OS cells; lower = more potent
T1 construct: expressed in transfected cells; host or cells: U2OS (recombinant, IPTG-inducible TDP-43 expression)
Description: Recombinant TDP-43-tGFP-U2OS cell line was thawed (2×10^6 cells per T75) and was maintained in DMEM-F12 supplemented with 10% FBS at 37° C. in a humidified 5% CO2 atmosphere. Cells were plated in 96-well plates with a density of 10,000 cells (+/−2000 cells) per well. Cells were incubated with the test compounds and isopropyl β-D-1-thiogalactopyranoside (IPTG) 1 mM to induce TDP43 expression for 24 hours. The assays were carried out in triplicate. Cells were treated with 125-250 μM of sodium arsenite for 120 min and TDP-43 punctae formation was quantified in both cell cytoplasm and cell nucleus, in living cells. The nuclei were stained using Hoechst (0.5 μg/ml) and the fluorescence was measured using a Cell Insight High-Content Bioimager from Thermo Fisher. To detect the Hoechst, the filters used were 380/10 and 460/10 nm for excitation and emission, respectively, and to detect the TDP-43 punctae, the filters were 488/20 and 520/20 nm, respectively. The images were obtained with an objective of 20×. Cell quantification was performed delimitating the region of interest of the nuclei and after quantification the average of each triplicate was performed. For granule quantification the spot detector application from Cell Software delimitated 2 regions of interest, the nuclei and cytosol. This software quantified the average number of granules per nuclei and the average number of granules per cytosol in each well.

Aβ 1-42 = target: T2, Aβ 1-42 (Homo sapiens, UniProt P05067); assay: Aβ42 thioflavin T assay; type: biochemical; settings: 50 μM compound, 5 μM Aβ 1-42, ThT RFU at 15 hours; 100% = Aβ + DMSO; read-out: Aβ42 % aggregation at 50 μM
T2 construct: The monomeric form of Aβ 1-42 (rPeptide, A1170-025) film; purchased rPeptide A1170-025
Description: The effect of compounds on fibril formation by Aβ 1-42 was screened using a thioflavin T (ThT) fluorescence assay in a 96-well plate format. The monomeric form of Aβ 1-42 (rPeptide, A1170-025) film was diluted with 10 mM NaOH to form a 1 mg/ml stock solution. This stock solution was then further diluted with cell culture grade water (Cytiva, SH30529.01) and 10×PBS (VWR, 97063-660) to a working concentration of 100 μM in 1×PBS on ice. Compounds were initially dissolved in 100% DMSO (MilliporeSigma, D2650) at room temperature to make a 10 mM stock and stored at −20° C. prior to the experiment. On the day of the experiment, the stock solution was diluted with 1×PBS to a concentration of 500 μM, containing 5% DMSO. The reaction mixture, containing 10 μM ThT […], 5 μM Aβ 1-42, and 1×PBS was prepared in 15 ml Falcon centrifuge tubes (Corning, 352070) and kept on ice during preparation. The reaction mixture was then dispensed into multiple wells of a 96-well half-area, low-binding polyethylene non-treated plate (Corning, 3880) with a clear bottom, at 90 μL per well. To each well, 10 μL of 500 μM compound stock was added, with three replicates per compound. To account for the presence of DMSO, 5% DMSO in 1×PBS was used as the vehicle control. The positive control consisted of 10 μM ThT, 5 μM Aβ 1-42, and 0.5% DMSO in 1×PBS, while the negative control consisted of 10 μM ThT and 0.5% DMSO in 1×PBS. The plates were sealed with polyester sealing tape (VWR, 89134-430) to prevent evaporation and then placed in a plate reader (Molecular Devices SpectraMax ID5) at 37° C. without agitation. ThT fluorescence was measured through the bottom of the plate using 440- and 480-nm excitation and emission filters for 15 hours at 0.5-hour intervals. Each well was scanned at 5 points with a 1.25 mm distance between points. The relative fluorescence unit (RFU) at 15 hours was used to rank the percent of aggregation for all tested compounds and controls.

[2] = target: TDP-43 peptide (amino acids 307-319) (Homo sapiens, UniProt Q13148); assay: TDP-43 thioflavin T assay; type: biochemical; settings: ThT RFU at 15 hours; 100% = TDP-43 + DMSO
Description: The effect of compounds on fibril formation by TDP-43 peptide (amino acids 307-319) was screened using a thioflavin T (ThT) fluorescence assay in a 96-well plate format. The monomeric form of TDP-43 307-319 was stored in HFIP at −20° C. in 32 μL vials and then thawed on ice. After thawing a stock aliquot on ice, 16 μL of HFIP and 432 μL 100 mM ammonium acetate was added. This mix was pipetted three times. Three such prepared aliquots were combined to create a master mix. 400 μM of ThT stock was prepared by dissolving 31.8 mg ThT in 10 mL Milli-Q water to make […] stock. The 10 mM ThT stock was then diluted to 400 μM with Milli-Q water and stored at −20° C. until use. 20 μL aliquots of compounds were used as initial starting material. 98 μL of master mix was then added to each well of 96-well plate, and then 2 μL of compounds was added to each well testing a compound. The plate was spun at 4700×rpm to remove bubbles at 4° C., and then the plate measurements were collected. ThT fluorescence was measured through the bottom of the plate using 440- and 480-nm excitation and emission filters for 15 hours at 0.5-hour intervals. Each well was scanned at 5 points with a 1.25 mm distance between points. The relative fluorescence unit (RFU) at 15 hours was used to rank the percent of aggregation for all tested compounds.

alpha-synuclein = target: T3, alpha-synuclein (Homo sapiens, UniProt P37840); assay: Alpha-synuclein thioflavin T assay; type: biochemical; settings: 250 μM compound on pre-formed aggregates of 50 μM alpha-synuclein, 24 hours; 100% = alpha synuclein + DMSO
T3 construct: purchased Proteos RP-003
Description: Recombinant alpha-synuclein monomeric protein was procured from Proteos (catalog no. RP-003, 10 mg/ml or 700 μM concentration). Prior to aggregation, the protein was centrifuged at 10,000 rpm for 5 minutes to remove any pre-existing aggregates. The stock solution was then diluted to 50 μM concentration in filtered 1×PBS and allowed to aggregate with continuous shaking at 1000 rpm on a thermomixer for 96 hours at 37° C. After 96 hours, the ThT fluorescence was checked for the sample to confirm aggregate formation using ThT, a well-known amyloid marker dye. The ThT active aggregates were then used for high-throughput small molecule inhibitor screening. For screening small molecule disaggregators, 10 mM DMSO stock solutions of small molecules were diluted to 250 μM in the reaction mix containing 20 μM ThT and aggregates formed by 50 μM alpha-synuclein. As a positive/vehicle control, 100% DMSO stock was diluted to 2.5% to match the DMSO in the small molecule conditions. ThT fluorescence assay was performed for 24 hours with 3 replicates per sample in a 384 well plate (Corning low volume black/clear flat bottom) on a microplate reader (Molecular Devices SpectraMax iD5 or BioTek Agilent Synergy Neo2) using excitation wavelength of 440 nm and emission wavelength of 490 nm. The temperature was maintained at 37° C. and the plate was continuously shaken throughout the measurement. All data were plotted and analyzed in GraphPad Prism.

T2 sequence (P05067 672-713 limits assumed): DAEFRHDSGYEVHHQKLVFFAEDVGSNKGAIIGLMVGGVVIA
T1 sequence (Q13148 whole entry): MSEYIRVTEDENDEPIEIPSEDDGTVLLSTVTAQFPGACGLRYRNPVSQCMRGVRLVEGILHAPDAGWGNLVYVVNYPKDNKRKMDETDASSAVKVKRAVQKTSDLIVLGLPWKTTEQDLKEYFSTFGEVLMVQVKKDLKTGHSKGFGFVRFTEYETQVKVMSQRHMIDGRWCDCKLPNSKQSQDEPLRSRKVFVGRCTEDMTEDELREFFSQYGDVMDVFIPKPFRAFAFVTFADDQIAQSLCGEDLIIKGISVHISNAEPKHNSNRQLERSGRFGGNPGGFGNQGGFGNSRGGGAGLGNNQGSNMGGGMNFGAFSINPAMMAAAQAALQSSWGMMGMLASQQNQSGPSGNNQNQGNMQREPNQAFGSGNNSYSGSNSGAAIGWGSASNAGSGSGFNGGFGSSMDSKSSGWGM

| SMILES | % remaining TDP-43 cytosolic aggregates after 100 μM compound addition [1] [%] | activity at 50 µM (Aβ 1-42) [%] | % aggregation TDP-43 ThT at 50 μM TDP-43 [2] [%] | % alpha synuclein aggregation as measured on ThT (alpha-synuclein) [%] |
| --- | --- | --- | --- | --- |
| CC(=O)Nc1ccc2c(c1)CCN(CCc1ccccc1)C2 [Compound 3, N-(2-Phenethyl-1,2,3,4-tetrahydroisoquinolin-6-yl) acetamide] | >99.9 | > 99.9 | 78.9 | 82.8 |
| CNC(=O)c1ccc2c(c1)CCN(CCc1cccc(Cl)c1)C2 [Compound 4, 2-(3-chlorophenethyl)-N-methyl-1.2.3.4-tetrahydroisoquinoline-6-carboxamide] | 59.1 | 74.6 |  | >99.9 |
| Clc1cccc(CCN2CCc3ccccc3C2)c1 [Compound 5, 2-(3-chlorophenethyl)-1,2,3,4-tetrahydroisoquinoline] | 40.7 |  | 64.6 | 99 |
| CC(=O)Nc1ccc2c(c1)CN(CCc1cccc(Cl)c1)CC2 [Compound 6, N-(2-(3-Chlorophenethyl)-1,2,3,4-tetrahydroisoquinolin-7-yl) acetamide] | 93.7 | 59.7 | 73.1 | >99.9 |
| CC(=O)Nc1ccc2c(c1)CN(CCc1ccc(O)c(Cl)c1)C2 [Compound 12, N-(2-(3-Chloro-4-hydroxyphenethyl)isoindolin-5-yl) acetamide] |  |  | 43.5 |  |
| CC(=O)Nc1ccc2c(c1)CN(CCc1ccc(O)c(C)c1)C2 [Compound 13, N-(2-(4-Hydroxy-3-methylphenethyl)isoindolin-5-yl) acetamide] |  |  | 48.8 |  |
| CCc1cc(CCN2Cc3ccc(NC(C)=O)cc3C2)ccc1O [Compound 14, N-(2-(3-Ethyl-4-hydroxyphenethyl)isoindolin-5-yl) acetamide] |  |  | 48.6 |  |
| CC(=O)N(C)c1ccc2c(c1)CN(CCc1ccc(O)c(Cl)c1)C2.Cl [Compound 15, N-(2-(3-Chloro-4-hydroxyphenethyl)isoindolin-5-yl)-N-methylacetamide hydrochloride] |  |  | 47.2 |  |
